Measured values taken from US20240270793A1, “COMPOSITIONS” (UNIVERSITY OF SOUTHAMPTON, priority 2020, published 2024).
Square brackets hold non-standard residues; d marks the D form. Peptide text beside a SMILES is read from it. Phe(4-I) = N[C@@H](Cc1ccc(I)cc1)C(=O)O

Assays:
[1] = target: T1, HIF-1α PAS-B (238-349) (Homo sapiens, UniProt Q16665); assay: MST binding to recombinantly expressed HIF-1α PAS-B domain; conditions: HIF-1α PAS-B, parent CRLIIF
T1 construct: human HIF-1α PAS-B (238-349); His tag; made in house; host or cells: E. coli BL21(DE3)-Rosetta, pET28a
Method: (§1) Genes encoding for human HIF-1α PAS-B (238-349) and HIF-2α PAS-B (240-350) were each cloned into pET28a vectors at the BamHI and SacI restriction sites. The recombinant plasmids were next transformed into BL21(DE3)-Rosetta chemically competent cells. Cells were grown in LB media at 37° C. to an OD600 of 0.7, after which expression was induced by addition of 0.5 mM IPTG. Following overnight expression at 16° C., cells were pelleted and resuspended in buffer containing 50 mM Tris, 150 mM NaCl, 5% glycerol, 1 mM TCEP, protease inhibitors (Roche) and 20 mM imidazole, pH 8.0. Cells were lysed by sonication, and the supernatant applied to a 1 mL Histrap FF affinity column. The His-tagged protein of interest was eluted with buffer containing 50 mM Tris, 150 mM NaCl, 5% glycerol, 1 mM TCEP and 250 mM imidazole. The protein was then loaded onto a HiLoad 16/600 superdex 75 pg size exclusion column (GE healthcare) equilibrated with assay buffer containing 50 mM Tris, 150 mM NaCl, 5% glycerol and 1 mM TCEP, pH 8.0. Fractions containing the desired protein were flash-frozen and stored at −80° C. prior to use.
HIF-α proteins were labelled with Monolith NT-647 labelling dye (Nanotemper Technologies GmbH) according to the manufacturer's instructions. MST experiments were performed on a Monolith NT.115 system (Nanotemper Technologies GmbH), in assay buffer containing 50 nM labelled protein, 10% DMSO and 0.05% TWEEN-20. MST measurements were performed using 50% LED and 50% MST power.

[2] = target: T2, HIF-2α PAS-B (240-350) (Homo sapiens, UniProt Q99814); assay: MST binding to recombinantly expressed HIF-2α PAS-B domain; conditions: HIF-2α PAS-B vs HIF-1α PAS-B
T2 construct: HIF-2α PAS-B (240-350); His tag; made in house; host or cells: E. coli BL21(DE3)-Rosetta, pET28a
Method: The three lead peptides were next chemically synthesised, using Fmoc-solid phase peptide synthesis methodology, followed by in-solution cyclisation under high dilution conditions.
as §1, with “use. […]” for “use.”

[3] = test system: HRE-controlled YFP expression in T-REx-293 cell line; assay: YFP reporter assay (YFP under control of three HRE copies) in hypoxia; type: cell-based; conditions: YFP-reporter HEK cell line, various doses
Method: The effect of the cyclic peptides on cellular systems was assessed. A cell-based assay was developed in which the expression of yellow fluorescent protein (YFP) was put under the control of the HRE. A cassette was designed containing the YFP gene preceded by three copies of the HRE sequence. This cassette in turn was stably integrated into the chromosome of T-REX-293 cell line as described previously. […] In these cells, hypoxia results in increased expression of YFP (directly by HIF), so a HIF inhibitor would be expected to reduce the fluorescence of these cells when incubated in hypoxia.
Following in vitro characterisation and optimisation of binding, the effect of the cyclic peptides on cellular systems was assessed. A cell-based assay was developed in which the expression of yellow fluorescent protein (YFP) was put under the control of the HRE. A cassette was designed containing the YFP gene preceded by three copies of the HRE sequence. This cassette in turn was stably integrated into the chromosome of T-REx-293 cell line as described previously.^12
In these cells, hypoxia results in increased expression of YFP (directly by HIF), so a HIF inhibitor would be expected to reduce the fluorescence of these cells when incubated in hypoxia.

[4] = test system: cells; assay: commercial cell-viability assay; type: cell-based; conditions: at up to twice the tested doses
Method: The 4-iodo derivative was tested in a commercial cell-viability assay, and was not toxic to cells at up to twice the tested doses.
The 4-iodo derivative was tested in a commercial cell-viability assay, and was not toxic to cells at up to twice the tested doses (FIG. 6).

[5] = target: T3, HIF-1a (Homo sapiens, UniProt Q16665); assay: CETSA in MCF-7 cells; type: cell-based; conditions: observed at 51° C. and 54° C.
T3 construct: endogenous in cells; host or cells: MCF-7
Method: The binding of 4-iodo derivative to HIF-1a was assessed by CETSA in MCF-7 cells. Stabilisation of HIF-1a by this compound can be observed at 51° C. and 54° C.
The binding of 4-iodo derivative to HIF-1a was assessed by CETSA in MCF-7 cells. Stabilisation of HIF-1a by this compound can be observed at 51° C. and 54° C. (FIG. 7).

[6] = solubility (qualitative); type: physicochemical

T2 sequence (Q99814 240-350): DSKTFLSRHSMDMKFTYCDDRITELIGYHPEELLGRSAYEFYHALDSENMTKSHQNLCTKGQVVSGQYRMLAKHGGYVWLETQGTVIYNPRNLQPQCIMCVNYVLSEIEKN
T1 sequence (Q16665 238-349): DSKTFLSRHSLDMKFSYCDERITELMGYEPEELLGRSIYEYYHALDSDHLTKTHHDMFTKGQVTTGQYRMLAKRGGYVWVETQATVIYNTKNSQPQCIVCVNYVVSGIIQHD
T3 sequence (Q16665 whole entry): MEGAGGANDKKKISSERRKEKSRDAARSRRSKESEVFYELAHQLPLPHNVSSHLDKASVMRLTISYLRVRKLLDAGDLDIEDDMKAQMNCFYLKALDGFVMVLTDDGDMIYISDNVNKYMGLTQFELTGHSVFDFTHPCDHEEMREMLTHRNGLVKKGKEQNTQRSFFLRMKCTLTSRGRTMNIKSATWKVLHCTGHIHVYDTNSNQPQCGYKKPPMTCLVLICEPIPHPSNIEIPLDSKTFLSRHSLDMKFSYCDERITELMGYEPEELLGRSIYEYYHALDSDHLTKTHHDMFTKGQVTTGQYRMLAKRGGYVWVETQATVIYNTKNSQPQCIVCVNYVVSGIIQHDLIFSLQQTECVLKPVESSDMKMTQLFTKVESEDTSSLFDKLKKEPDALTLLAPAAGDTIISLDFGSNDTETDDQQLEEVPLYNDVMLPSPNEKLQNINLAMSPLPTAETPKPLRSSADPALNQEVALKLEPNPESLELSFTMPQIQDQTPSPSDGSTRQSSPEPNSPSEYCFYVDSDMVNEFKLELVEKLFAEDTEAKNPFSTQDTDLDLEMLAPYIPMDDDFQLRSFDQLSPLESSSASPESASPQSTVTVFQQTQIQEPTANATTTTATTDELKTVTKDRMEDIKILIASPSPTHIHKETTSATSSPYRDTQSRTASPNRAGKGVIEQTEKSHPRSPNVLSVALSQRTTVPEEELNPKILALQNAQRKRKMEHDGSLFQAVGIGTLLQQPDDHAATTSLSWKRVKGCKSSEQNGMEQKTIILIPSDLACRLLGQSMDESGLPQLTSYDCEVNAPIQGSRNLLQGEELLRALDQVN

With CC[C@H](C)[C@@H]1NC(=O)[C@H](CC(C)C)NC(=O)[C@H](CCCNC(=N)N)NC(=O)[C@H](CS)NC(=O)[C@H](Cc2ccc(I)cc2)NC(=O)[C@H]([C@@H](C)CC)NC1=O [Cyclic peptide #18, cyclo-cys agr leuileile (4-I)phe] (cyclo(CRLII[Phe(4-I)])) the “improvement in affinity relative to the parent compound” value [1] was 4.5 fold, the “loss in Kd compared to the 1α isoform” value [2] was 2.2 fold and the IC50 [3] was ~35 µM. The “toxicity to cells in cell-viability assay” value [4] was “not toxic”, the “Stabilisation of HIF-1a by CETSA” value [5] was “Stabilisation” and the “water solubility compared with the 4-benzyl compound” value [6] was “better water solubility”.
